The values below come from US20040161391A1, “Ascorbic acid compounds as bleaching agents” (L'OREAL, priority 2002, published 2004).

The test system of data set [1] is melanogenesis. Put plainly: Activity on melanogenesis (ratio of thiouracil to leucine incorporation). The class given is cell-based. The settings on record: for IC50: read-out: IC50 (concentration for which a 50% inhibition of melanogenesis is observed); for Inhibitory activity on melanogenesis: relative to 100% of control, test concentration: T1 312 μM, T2 327 μM, A 230 μM, B 262 μM. Here is the method:
The melanogenesis-modulating effect of the compounds of formula (I) was measured according to the method described in patent application EP-0 993 826 filed by the Applicant, and also in the article by R. Schmidt, P. Krien and M. Regnier, Anal. Biochem., 235(2), 113-18, (1996).
(§1) The following were determined for each test compound:
the inhibitory activity on melanin synthesis, by estimating the ratio of the incorporation of thiouracil to the incorporation of leucine, relative to 100% of the control (the control corresponds to the test performed without test compound),
the IC50 value, which corresponds to the micromolar (μM) concentration for which a 50% inhibition of melanogenesis is observed.

Data set [2] is described as follows: Cytotoxicity by estimating the incorporation of leucine. In kind it is cell-based. Here is the method:
as §1
the cytotoxicity, by estimating the incorporation of leucine, […]

Data set [3] relates to melanocytes in co-culture. Put plainly: Activity on the dendricity of melanocytes (melanocyte/keratinocyte co-culture, NKlbeteb labelling). The class given is cell-based. Particulars: 7 days treatment, 100 μg per ml; test concentration: T1 312 μM, T2 327 μM, A 230 μM, B 262 μM. Here is the method: The aim of this test is to show the effect of the compounds used according to the invention on the morphological modulation of melanocytes.
The melanocytes are treated immediately on inoculation with the compounds according to the invention for 7 days. The compounds are used at a dose of 100 μg per ml.
The melanocytes are labelled using the antibody NKlbeteb (green coloration), which recognizes melanosomes at any stage of maturation. The nucleus of all the cells, melanocytes and keratinocytes, is stained using propidium iodide (red coloration).
In the absence of the compounds according to the invention, the melanocytes in co-culture are highly dendritic. The pigment is visibly transferred to the neighbouring keratinocytes.

Data set [4] relates to melanocytes. Particulars: Pigment. Cell. Res., 13, 2000; cited from earlier work.
In data set [5] the target is T1, tyrosinase (Homo sapiens, UniProt P14679).
T1 sequence (P14679 19-529): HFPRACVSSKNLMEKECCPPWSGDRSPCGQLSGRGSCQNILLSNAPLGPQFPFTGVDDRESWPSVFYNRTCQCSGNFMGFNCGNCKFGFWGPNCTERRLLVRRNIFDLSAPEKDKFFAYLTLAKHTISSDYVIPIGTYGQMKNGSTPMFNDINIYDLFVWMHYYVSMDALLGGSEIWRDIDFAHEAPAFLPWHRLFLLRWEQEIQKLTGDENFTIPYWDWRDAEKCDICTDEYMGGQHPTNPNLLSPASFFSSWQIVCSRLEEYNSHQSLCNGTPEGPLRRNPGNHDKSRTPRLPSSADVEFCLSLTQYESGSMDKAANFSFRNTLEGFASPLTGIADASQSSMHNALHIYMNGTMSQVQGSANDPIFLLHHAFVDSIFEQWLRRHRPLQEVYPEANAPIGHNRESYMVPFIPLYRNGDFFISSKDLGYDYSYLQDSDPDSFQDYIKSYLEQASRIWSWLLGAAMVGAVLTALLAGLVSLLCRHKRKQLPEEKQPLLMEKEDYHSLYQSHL
Particulars: J. Soc. Cosmet. Chem., 42, 1991; cited from earlier work.

“Also recorded” adds a separate entry of the source.

As for `COc1cc(/C=C/C(=O)OC2=C(O)C(C3COC(C)(C)O3)OC2=O)ccc1O` (centres unmarked) [Compound B, 5-(2,2-dimethyl[1,3]dioxolan-4-yl)-4-hydroxy-2-oxo-2,5-dihydro-3-furanyl 3-[(4-hydroxy-3-methoxy)phenyl]acrylate], the IC50 in data set [1] is 500 µM. In addition, the Cytotoxicity entry in data set [2] was “No”. Besides, in data set [3], the Dendricity result is given as “Bipolar” and the Transfer of pigmentation result is listed as “reduced; also recorded: Little”.
Regarding `O=C1O[C@H]([C@@H](O)CO)C([O-])=C1OP(=O)([O-])[O-].O=C1O[C@H]([C@@H](O)CO)C([O-])=C1OP(=O)([O-])[O-].[Mg+2].[Mg+2].[Mg+2]` [magnesium ascorbyl phosphate], in data set [4], the “Dendricity of the melanocytes” value is given as “reduce the dendricity” and the Melanin transfer entry is reported as “effect on melanin transfer”.
On to `O=C1O[C@H]([C@@H](O)CO)C(O)=C1O` [ascorbic acid], for which the Effect on tyrosinase entry in data set [5] is recorded as “inhibitory effect”.
`COc1cc(/C=C/C(=O)OC2=C(O)C(C3COC(C)(C)O3)OC2=O)ccc1OC(C)=O` (centres unmarked) [Compound A, 5-(2,2-dimethyl[1,3]dioxolan-4-yl)-4-hydroxy-2-oxo-2,5-dihydro-3-furanyl 3-[(4-acetoxy-3-methoxy)phenyl]acrylate]: in data set [1], the IC50 stood at 200 µM. For the same compound, in data set [2], the Cytotoxicity entry is reported as “No”. Besides, in data set [3], the Dendricity result is on record as “Bipolar” and the Transfer of pigmentation entry is “reduced; also recorded: Little”.
As to `O=C(/C=C/c1ccccc1)OC1=C(O)[C@@H]([C@@H](O)CO)OC1=O` [Compound T2, ascorbyl 2-cinnamate], in data set [1], the “IC50 (concentration for which a 50% inhibition of melanogenesis is observed)” value was “No effect” and the “Inhibitory activity on melanogenesis” value was “No effect”. For the same compound, the Cytotoxicity entry in data set [2] is “No”. Further, in data set [3], the Dendricity entry is “Multipolar” and the Transfer of pigmentation result is “Large”.
For “methyl 2,3-bis-acetate of ascorbic acid [Compound T1]”, in data set [1], the “IC50 (concentration for which a 50% inhibition of melanogenesis is observed)” value is “No effect” and the “Inhibitory activity on melanogenesis” value is reported as “No effect”. In data set [3], the Dendricity result was “Multipolar” and the Transfer of pigmentation entry was “Large”.
